From the supplement of paper PMC10307832

How the values were obtained:
Experiment in all cases: relative viability (nuclei count vs DMSO), 5 days (fraction); higher = more cells survive
Cediranib + Phenformin = compound: COc1cc2c(Oc3ccc4[nH]c(C)cc4c3F)ncnc2cc1OCCCN1CCCC1 [Cediranib] + N=C(N)NC(=N)NCCc1ccccc1 [Phenformin] (partner 250 µM)
Summary of the method: (§1)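 A single step with final 0.05% Triton X-100, 1% formaldehyde and 1 ug/ml Hoechst fixed the cells and stained nuclei 5 days after treatment. Lung cancer cell lines in 1536-well plates had been treated by pin tool the day after seeding with one drug alone or a fixed anchor-drug dose plus five library-drug doses (not always all listed) in √10 steps, and nuclei were counted on 4× images. Relative viability is the ratio of nuclei in treated wells to nuclei in vehicle wells, taken as the median of duplicate plates.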

Halofuginone + Lapatinib = compound: O=C(C[C@H]1NCCC[C@@H]1O)Cn1cnc2cc(Br)c(Cl)cc2c1=O (racemic) [Halofuginone] + CS(=O)(=O)CCNCc1ccc(-c2ccc3ncnc(Nc4ccc(OCc5cccc(F)c5)c(Cl)c4)c3c2)o1 [Lapatinib] (partner 2 µM)
Summary of the method: as §1

Cediranib + Dasatinib = compound: COc1cc2c(Oc3ccc4[nH]c(C)cc4c3F)ncnc2cc1OCCCN1CCCC1 [Cediranib] + Cc1nc(Nc2ncc(C(=O)Nc3c(C)cccc3Cl)s2)cc(N2CCN(CCO)CC2)n1 [Dasatinib] (partner 0.075 µM)
Summary of the method: as §1

Decitabine + Lapatinib = compound: Nc1ncn([C@H]2C[C@H](O)[C@@H](CO)O2)c(=O)n1 [Decitabine] + CS(=O)(=O)CCNCc1ccc(-c2ccc3ncnc(Nc4ccc(OCc5cccc(F)c5)c(Cl)c4)c3c2)o1 [Lapatinib] (partner 2 µM)
Summary of the method: as §1

Cell Line	relative viability (Cediranib + Phenformin; first compound 0.04 µM)	relative viability (Cediranib + Phenformin; first compound 0.1265 µM)	relative viability (Cediranib + Phenformin; first compound 0.4 µM)	relative viability (Cediranib + Phenformin; first compound 1.265 µM)	relative viability (Cediranib + Phenformin; first compound 4 µM)	relative viability (Halofuginone + Lapatinib; first compound 0.001 µM)	relative viability (Halofuginone + Lapatinib; first compound 0.003162 µM)	relative viability (Halofuginone + Lapatinib; first compound 0.01 µM)	relative viability (Halofuginone + Lapatinib; first compound 0.03162 µM)	relative viability (Halofuginone + Lapatinib; first compound 0.1 µM)	relative viability (Cediranib + Dasatinib; first compound 0.04 µM)	relative viability (Cediranib + Dasatinib; first compound 0.1265 µM)	relative viability (Cediranib + Dasatinib; first compound 0.4 µM)	relative viability (Cediranib + Dasatinib; first compound 1.265 µM)	relative viability (Cediranib + Dasatinib; first compound 4 µM)	relative viability (Decitabine + Lapatinib; first compound 0.04 µM)	relative viability (Decitabine + Lapatinib; first compound 0.1265 µM)	relative viability (Decitabine + Lapatinib; first compound 0.4 µM)	relative viability (Decitabine + Lapatinib; first compound 1.265 µM)	relative viability (Decitabine + Lapatinib; first compound 4 µM)
HCC-366	0.536	0.594	0.614	0.738	0.663	1.05	1.17	0.979	1.08	0.542	0.649	0.622	0.553	0.636	0.711	0.938	1.07	0.214	0.164	0.113
HCC-827	0.412	–	0.389	0.385	0.356	0.192	0.189	0.236	0.233	0.202	0.284	–	0.226	0.309	0.275	–	0.168	0.187	0.187	0.2
HOP-62	0.703	0.607	0.647	0.632	0.741	0.983	1.09	0.936	0.791	0.948	0.698	0.909	0.577	0.617	0.77	0.962	0.604	0.348	0.1	0.14
IA-LM	–	–	–	–	–	0.85	0.781	0.579	0.518	0.0907	–	–	–	–	–	0.503	0.306	0.212	0.169	0.178
LC-2-ad	0.595	0.497	0.612	0.569	0.554	0.98	1.02	0.93	0.874	0.726	0.555	0.654	0.427	0.496	0.403	0.676	0.775	0.317	0.245	0.37
LCLC-97TM1	0.501	0.288	0.421	0.49	0.449	0.72	0.881	1.02	0.754	0.825	0.893	0.81	0.799	0.876	0.834	0.576	0.335	0.173	0.169	0.126
LCLC-103H	0.319	0.39	0.298	0.344	0.352	–	–	–	–	–	0.594	0.578	0.413	0.511	0.5	–	–	–	–	–
LK-2	0.38	0.175	0.35	0.418	0.29	1.01	0.801	0.951	0.891	0.778	0.283	0.224	0.331	0.212	0.262	0.784	0.991	0.75	0.521	0.402
LOU-NH91	0.688	0.986	0.696	0.625	0.673	0.77	0.746	0.747	0.738	0.676	0.522	0.78	0.51	0.495	0.552	0.764	0.712	0.649	0.689	0.661
LU99A	0.726	0.589	0.75	0.734	0.924	0.985	0.965	0.892	0.934	0.607	0.504	0.465	0.513	0.433	0.655	1.01	1.08	1.19	0.866	0.683
LXF-289	0.565	0.404	0.487	0.49	0.549	0.891	0.893	0.847	0.874	0.895	0.252	0.3	0.192	0.3	0.236	0.809	0.733	0.484	0.402	0.354
NCI-H23	0.756	–	0.724	0.683	0.867	1.28	1.03	1.2	0.713	0.707	0.729	–	0.7	0.375	1.07	0.777	0.795	0.237	0.235	0.22
NCI-H322M	0.879	0.862	0.728	0.849	0.8	0.47	0.583	0.585	0.607	0.493	0.239	0.277	0.247	0.258	0.255	0.682	0.629	0.609	0.434	0.421
NCI-H358	0.336	0.41	0.299	0.222	0.358	0.56	0.432	0.376	0.282	0.232	0.174	0.239	0.194	0.137	0.173	0.468	0.512	0.388	0.284	0.334
NCI-H441	0.658	–	0.802	0.763	0.991	–	–	–	–	–	0.466	–	0.678	0.559	0.772	–	–	–	–	–
NCI-H522	0.623	0.608	0.575	0.64	0.687	–	–	–	–	–	0.827	0.77	0.85	0.965	0.811	–	–	–	–	–
NCI-H1299	–	–	–	–	–	0.995	1	0.916	0.941	0.65	–	–	–	–	–	0.972	0.989	0.953	0.918	0.855
NCI-H1623	0.587	–	0.553	0.595	0.567	–	–	–	–	–	0.618	–	0.523	0.463	0.536	–	–	–	–	–
NCI-H1703	–	–	–	–	–	1.15	1.28	0.95	0.792	0.427	–	–	–	–	–	0.698	0.652	0.484	0.36	0.274
NCI-H2342	0.563	0.825	0.635	0.466	0.58	–	–	–	–	–	0.334	0.392	0.288	0.295	0.327	–	–	–	–	–
SW 900	0.658	0.604	0.698	0.496	0.645	–	–	–	–	–	0.629	0.669	0.594	0.654	0.524	–	–	–	–	–
